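Each compound was tested at five concentrations against cells in 96-well plates for 48 hours. Definition used: TGI = concentration required for complete inhibition of growth.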
How the values were obtained:
Experiment in all cases: NCI-60 cell line screen, 48 h
ACHN renal = test system: ACHN renal
HCC-2998 colon = test system: HCC-2998 colon
HCT-116 colon = test system: HCT-116 colon
HOP-92 NSCLC = test system: HOP-92 NSCLC
NCI-H460 lung = test system: NCI-H460 lung
OVCAR-5 ovarian = test system: OVCAR-5 ovarian
OVCAR-8 ovarian = test system: OVCAR-8 ovarian
RXF 393 renal = test system: RXF 393 renal
SF-539 CNS = test system: SF-539 CNS
UO-31 renal = test system: UO-31 renal

O=C(C1OC1c1ccc(Br)cc1O)C12CC3CC(CC(C3)C1)C2 (configuration not stated)
TGI (ACHN renal): > 100 µM
TGI (HCC-2998 colon): 47.6 µM
TGI (HCT-116 colon): 30.9 µM
TGI (HOP-92 NSCLC): 48.8 µM
TGI (NCI-H460 lung): 85.2 µM
TGI (OVCAR-5 ovarian): > 100 µM
TGI (OVCAR-8 ovarian): > 100 µM
TGI (RXF 393 renal): 72.4 µM
TGI (SF-539 CNS): > 100 µM
TGI (UO-31 renal): 31.3 µM

CN(C)CCNS(=O)(=O)c1ccc(N)cc1
TGI (ACHN renal): > 100 µM
TGI (HCC-2998 colon): > 100 µM
TGI (HCT-116 colon): > 100 µM
TGI (HOP-92 NSCLC): > 100 µM
TGI (NCI-H460 lung): > 100 µM
TGI (OVCAR-5 ovarian): > 100 µM
TGI (OVCAR-8 ovarian): > 100 µM
TGI (RXF 393 renal): > 100 µM
TGI (SF-539 CNS): > 100 µM
TGI (UO-31 renal): > 100 µM

NC(=O)C(=Cn1c(=S)[nH]c2ccc([N+](=O)[O-])cc21)C(N)=O
TGI (ACHN renal): > 100 µM
TGI (HCC-2998 colon): > 100 µM
TGI (HCT-116 colon): > 100 µM
TGI (HOP-92 NSCLC): > 100 µM
TGI (NCI-H460 lung): > 100 µM
TGI (OVCAR-5 ovarian): > 100 µM
TGI (OVCAR-8 ovarian): > 100 µM
TGI (RXF 393 renal): > 100 µM
TGI (SF-539 CNS): > 100 µM
TGI (UO-31 renal): > 100 µM

COC(=O)C1CC(C=[N+](C)C)=C(SC)N1C(=O)OCc1ccccc1 (configuration not stated)
TGI (ACHN renal): > 100 µM
TGI (HCC-2998 colon): > 100 µM
TGI (HCT-116 colon): > 100 µM
TGI (HOP-92 NSCLC): > 100 µM
TGI (NCI-H460 lung): > 100 µM
TGI (OVCAR-5 ovarian): > 100 µM
TGI (OVCAR-8 ovarian): > 100 µM
TGI (RXF 393 renal): > 100 µM
TGI (UO-31 renal): > 100 µM

Cc1ccc(-c2csc(=Nc3ccccc3)n2NC(=O)c2ccncc2)cc1
TGI (ACHN renal): > 100 µM
TGI (HCC-2998 colon): > 100 µM
TGI (HCT-116 colon): > 100 µM
TGI (HOP-92 NSCLC): > 100 µM
TGI (NCI-H460 lung): > 100 µM
TGI (OVCAR-5 ovarian): > 100 µM
TGI (OVCAR-8 ovarian): > 90.9 µM
TGI (RXF 393 renal): > 100 µM
TGI (SF-539 CNS): > 100 µM
TGI (UO-31 renal): > 100 µM

C(=C(c1ccc(OC2CCCCO2)cc1)c1ccc(OC2CCCCO2)cc1)c1ccccc1 (configuration not stated)
TGI (ACHN renal): 2.24 µM
TGI (HCC-2998 colon): 1.97 µM
TGI (HCT-116 colon): 1.64 µM
TGI (HOP-92 NSCLC): 1.96 µM
TGI (NCI-H460 lung): 1.79 µM
TGI (OVCAR-5 ovarian): 2.25 µM
TGI (OVCAR-8 ovarian): 2.64 µM
TGI (RXF 393 renal): 2.25 µM
TGI (SF-539 CNS): 3.24 µM
TGI (UO-31 renal): 2.26 µM

C#CCn1c(=O)c2ccccc2n(CC#C)c1=O
TGI (ACHN renal): > 10 µM
TGI (HCC-2998 colon): > 10 µM
TGI (HCT-116 colon): > 10 µM
TGI (HOP-92 NSCLC): > 10 µM
TGI (NCI-H460 lung): > 10 µM
TGI (OVCAR-5 ovarian): > 10 µM
TGI (OVCAR-8 ovarian): > 10 µM
TGI (RXF 393 renal): > 10 µM
TGI (SF-539 CNS): > 10 µM
TGI (UO-31 renal): > 10 µM

COC(=O)[C@@H](O)[C@](O)(CCC(C)C)C(=O)O[C@@H]1C(OC)=C[C@]23CCCN2CCc2cc4c(cc2[C@H]13)OCO4
TGI (HCC-2998 colon): 2.32 µM
TGI (HCT-116 colon): 2.57 µM
TGI (HOP-92 NSCLC): 6.26 µM
TGI (NCI-H460 lung): 1.7 µM
TGI (OVCAR-5 ovarian): 15.2 µM
TGI (OVCAR-8 ovarian): 6.51 µM
TGI (RXF 393 renal): 5.41 µM
TGI (SF-539 CNS): 3.16 µM
TGI (UO-31 renal): 8.42 µM

CC(=O)N(C(=O)CC(=O)N1N=C(c2ccccc2)C(N=Nc2ccccc2[N+](=O)[O-])C1=O)c1ccc(Cl)cc1 (configuration not stated)
TGI (ACHN renal): > 10 µM
TGI (HCC-2998 colon): > 10 µM
TGI (HCT-116 colon): > 10 µM
TGI (HOP-92 NSCLC): > 10 µM
TGI (NCI-H460 lung): > 10 µM
TGI (OVCAR-5 ovarian): > 10 µM
TGI (OVCAR-8 ovarian): > 10 µM
TGI (RXF 393 renal): > 10 µM
TGI (SF-539 CNS): > 10 µM
TGI (UO-31 renal): > 10 µM

C=CC1(CC/C(=C\[N+](=O)[O-])c2ccc(OC)c(OC)c2)OCC(C)(C)CO1
TGI (ACHN renal): 37.9 µM
TGI (HCC-2998 colon): 46.2 µM
TGI (HCT-116 colon): 71.9 µM
TGI (HOP-92 NSCLC): 54.8 µM
TGI (NCI-H460 lung): 55 µM
TGI (OVCAR-5 ovarian): 35.2 µM
TGI (OVCAR-8 ovarian): 36.9 µM
TGI (RXF 393 renal): 36.3 µM
TGI (UO-31 renal): 31.6 µM

CC(C)=CCC[C@@H](C)c1c(O)c(O)c(C)c2nccnc12
TGI (ACHN renal): 45.2 µM
TGI (HCC-2998 colon): > 96.6 µM
TGI (HCT-116 colon): > 100 µM
TGI (HOP-92 NSCLC): > 94.2 µM
TGI (NCI-H460 lung): > 100 µM
TGI (OVCAR-5 ovarian): > 100 µM
TGI (OVCAR-8 ovarian): > 48.6 µM
TGI (RXF 393 renal): > 89.1 µM
TGI (SF-539 CNS): 60.2 µM
TGI (UO-31 renal): 45.9 µM

Source: PubChem BioAssay (NCI)
